Consider 19 molecules from patent EP0609289B1, “IMIDAZOLE DERIVATIVES AND PHARMACEUTICAL COMPOSITIONS CONTAINING THE SAME” (THE UPJOHN COMPANY, priority 1991, dated 1993).

The target of this assay is Angiotensin II receptor. As to the kind of experiment: In vitro angiotensin II mesenteric artery receptor binding assay (test 1). Conditions: rat mesenteric artery membrane fraction, 0.2 nM 125I-Ang II, 22°C, 90 minutes. The method, then: I) In vitro angiotensin II mesenteric artery receptor binding assay
According to the method (1) by Gunther et al., a membrane fraction was prepared from mesenteric artery of male rat, […] protein equivalent of it and 0.2 nM ^125I-Ang II as well as various concentrations of test compounds were incubated at 22°C for 90 minutes in an incubation buffer (50 mM Tris-HCl, 120 mM NaCl, 5 mM MgCl2. 0.25% bovine serum albumin, pH 7.2) (reaction volume; 200 µl). The incubated was cooled, and the reaction was stopped by addition of ice-cooled phosphate buffer (10 mM phosphate, 140 mM NaCI, pH 7.4, hereinafter referred to as PBS), and then the reaction solution was filtered through a glass fiber filter (Whatman CF/B), the filter was washed, dried, and then the radioactivity of captured ^125I-angiotensin II which bound to the receptor was measured by a γ-counter. Non-specific bound amount was obtained from the reaction in the presence of 1 µM of unlabeled angiotensin II. […] Res., 17:278-286, 1980].

SMILES strings stand for the structures. Bounds are passed on as bounds.

Consider `CCCc1nc2c(n1Cc1ccc(-c3ccccc3-c3nn[nH]n3)cc1)C(=O)N1CC(CC)=C(CC)CN1C2` [Compound No. 390, 6,7-diethyl-5,8-dihydro-2-n-propyl-1-[{2'-(1H-tetrazol-5-yl)biphenyl-4-yl}methyl]-1H,4H-1,3,4a,8a-tetraza-cyclopentanaphthalene-9-one], for which the IC50 stood at 35 nM. The figure for `CCCCc1nc2c(=O)n3n(c(=O)c2n1Cc1ccc(-c2ccccc2-c2nn[nH]n2)cc1)C1(C(=O)OCC)CCC3CC1` [Compound No. 198, ethyl 2-n-butyl-4,9-dioxo-5,8-ethano-5,6,7,8-tetrahydro-1-[{2'-(1H-tetrazol-5-yl)biphenyl-4-yl}methyl]-1H-1,3,4a,8a-tetraza-cyclopentanaphthalene-8-carboxylate] is over 100 nM. The figure for `CCCc1nc2c(=O)n3n(c(=O)c2n1Cc1ccc(-c2ccccc2-c2nn[nH]n2)cc1)C(c1nc(C)no1)CCC3C` (stereo not shown) [Compound No. 331, 5-methyl-8-(3-methyloxadiazol-5-yl)-2-n-propyl-5,6,7,8-tetrahydro-1-[{2'-(1H-tetrazol-5-yl)biphenyl-4-yl}methyl]-1H-1,3,4a,8a-tetraza-cyclopentanaphthalene-4,9-dione] is 3.9 nM; for `CCc1nc2c(=O)n3n(c(=O)c2n1Cc1ccc(-c2ccccc2-c2nn[nH]n2)cc1)C1(C)CCC3(C)CC1` [compound 361, 5,8-dimethyl-5,8-ethano-2-ethyl-5,6,7,8-tetrahydro-1-[{2'-(1H-tetrazol-5-yl)biphenyl-4-yl}methyl]-1H-1,3,4a,8a-tetraza-cyclopentanaphthalene-4,9-dione] it is 55 nM.

`CCCCc1nc2c(=O)n3n(c(=O)c2n1Cc1ccc(-c2ccccc2-c2nn[nH]n2)cc1)CCCC3` [Compound No. 47, 2-n-butyl-5,6,7,8-tetrahydro-1-[(2'-(1H-tetrazol-5-yl)biphenyl-4-yl)methyl]-1H-1,3,4a,8a-tetraza-cyclopentanaphthalene-4,9-dione] displayed an IC50 of 5.3 nM. This IC50 is about 10-fold lower than that of the molecule before. In the case of `CCc1nc2c(=O)n3n(c(=O)c2n1Cc1ccc(-c2ccccc2-c2nn[nH]n2)cc1)C1(CC)CCC3(CC)CC1` [compound 355, 5,8-diethyl-5,8-ethano-2-ethyl-5,6,7,8-tetrahydro-1-[{2'-(1H-tetrazol-5-yl)biphenyl-4-yl}methyl]-1H-1,3,4a,8a-tetraza-cyclopentanaphthalene-4,9-dione] it was over 100 nM; in that of `CCCc1nc2c(=O)n3n(c(=O)c2n1Cc1ccc(-c2ccccc2-c2nnn[nH]2)cc1)C(C(=O)N(CC)CC)CCC3C` (stereo not shown) [Compound No. 205, 4,9-dioxo-5-methyl-2-n-propyl-5,6,7,8-tetrahydro-1-[{2'-(1H-tetrazol-5-yl)biphenyl-4-yl}methyl]-1H-1,3,4a,8a-tetraza-cyclopentanaphthalene-8-carboxy-N,N-diethylamide], 47 nM; in that of `CCc1nc2c(=O)n3n(c(=O)c2n1Cc1ccc(-c2ccccc2-c2nnn[nH]2)cc1)C1CCC3CC1` [compound 543, 5,8-ethano-2-ethyl-5,6,7,8-tetrahydro-1-[{2'-(1H-tetrazol-5-yl)biphenyl-4-yl}methyl)-1H-1,3,4a,8a-tetraza-cyclopentanaphthalene-4,9-dione], 26 nM. The figure for `CCCc1nc2c(=O)n3n(c(=O)c2n1Cc1ccc(-c2ccccc2-c2nn[nH]n2)cc1)C1(C(=O)N(CCO)CCO)CCC3CC1` [Compound No. 241, 4,9-dioxo-5,8-ethano-2-n-propyl-5,6,7,8-tetrahydro-1-[{2'-(1H-tetrazol-5-yl)biphenyl-4-yl}methyl]-1H-1,3,4a,8a-tetraza-cyclopentanaphthalene-8-carboxy-N,N-bis(2-hydroxyethyl)amide] is 25 nM; for `CCCCc1nc2c(=O)n3n(c(=O)c2n1Cc1ccc(-c2ccccc2-c2nn[nH]n2)cc1)C(C(=O)OCC)CCC3C` (stereo not shown) [compound 167, ethyl 2-n-butyl-4,9-dioxo-5-methyl-5,6,7,8-tetrahydro-1-[{2'-(1H-tetrazol-5-yl)biphenyl-4-yl}methyl]-1H-1,3,4a,8a-tetraza-cyclopentanaphthalene-8-carboxylate] it is 3.2 nM. In the case of `CCCc1nc2c(=O)n3n(c(=O)c2n1Cc1ccc(-c2ccccc2-c2nn[nH]n2)cc1)C(C)CCC3c1nc(C)no1` (stereo not shown) [Compound No. 329, 8-methyl-5-(3-methyloxadiazol-5-yl)-2-n-propyl-5,6,7,8-tetrahydro-1-[{2'-(1H-tetrazol-5-yl)biphenyl-4-yl}methyl]-1H-1,3,4a,8a-tetraza-cyclopentanaphthalene-4,9-dione] it was 65 nM; in that of `CCCc1nc2c(n1Cc1ccc(-c3ccccc3-c3nnn[nH]3)cc1)C(=O)N1C(c3ccccc3)CCCN1C2` (stereo not shown) [Compound No. 470, 8-phenyl-2-n-propyl-5,6,7,8-tetrahydro-1-[{2'-(1H-tetrazol-5-yl)biphenyl-4-yl}methyl]-1H,4H-1,3,4a,8a-tetraza-cyclopentanaphthalene-9-one], 20 nM; in that of `CCCc1nc2c(n1Cc1ccc(-c3ccccc3-c3nn[nH]n3)cc1)C(=O)N1CC(C)=C(C)CN1C2` [Compound No. 382, 5,8-dihydro-6,7-dimethyl-2-n-propyl-1-[{2'-(1H-tetrazol-5-yl)biphenyl-4-yl}methyl]-1H,4H-1,3,4a,8a-tetraza-cyclopentanaphthalene-9-one], 26 nM. As to `CCCc1nc2c(=O)n3n(c(=O)c2[nH]1)C(C)CCC3C` (stereo not shown) [Compound No. 280, 5,8-dimethyl-2-n-propyl-5 6,7,8-tetrahydro-1H-1,3,4a,8a-tetraza-cyclopentanaphthalene-4,9-dione], the IC50 worked out at 4.6 nM. This IC50 lies about 5.7-fold lower than the previous one. In the case of `CCCc1nc2c(=O)n3n(c(=O)c2n1Cc1ccc(-c2ccccc2-c2nnn[nH]2)cc1)C1(COCC(=O)OC(C)(C)C)CCC3CC1` [Compound No. 225, 8-t-butoxycarboxylmethoxymethyl-5,8-ethano-2-n-propyl-5,6,7,8-tetrahydro-1-[{2'-(1H-tetrazol-5-yl)biphenyl-4-yl}methyl]-1H-1,3,4a,8a-tetraza-cyclopentanaphthalene-4,9-dione] it was 66 nM; in that of `CCCc1nc2c(=O)n3n(c(=O)c2n1Cc1ccc(-c2ccccc2-c2nn[nH]n2)cc1)CC(C)=C(C)C3` [Compound No. 67, 5,8-dihydro-6,7-dimethyl-2-n-propyl-1-[(2'-(1H-tetrazol-5-yl)biphenyl-4-yl)methyl]-1H-1,3,4a,8a-tetraza-cyclopentanaphthalene-4,9-dione], 14 nM; in that of `CCCc1nc2c(=O)n3n(c(=O)c2n1Cc1ccc(-c2ccccc2-c2nn[nH]n2)cc1)C(C)CCC3C` (stereo not shown) [compound 337, 5,8-dimethyl-2-n-propyl-5,6,7,8-tetrahydro-1-[{2'-(1H-tetrazol-5-yl)biphenyl-4-yl}methyl]-1H-1,3,4a,8a-tetraza-cyclopentanaphthalene-4,9-dione], 4.6 nM. For `CCCCc1nc2c(=O)n3n(c(=O)c2n1Cc1ccc(C(=O)O)cc1)C(C(=O)O)CCC3C` (stereo not shown) [compound 121, 2-n-butyl-1-[(4-carboxyphenyl)methyl]-4,9-dioxo-5-methyl-5,6,7,8-tetrahydro-1H-1,3,4a,8a-tetraza-cyclopentanaphthalene-8-carboxylic acid], the IC50 is over 100 nM. The figure for `CCCCc1nc2c(=O)n3n(c(=O)c2n1Cc1ccc(C(=O)O)cc1)C(C)CCC3C(=O)O` (stereo not shown) [compound 124, 2-n-butyl-1[(4-carboxyphenyl)methyl]-4,9-dioxo-8-methyl-5,6,7,8-tetrahydro-1H-1,3,4a,8a-tetraza-cyclopentanaphthalene-5-carboxylic acid] is over 100 nM.
